Experimental data published in patent US10407409B2, “6-(5-hydroxy-1H-pyrazol-1-yl)nicotinamide inhibitors of PHD” (Takeda Pharmaceutical Company Limited, priority 2013, dated 2019).

Experiments:
[1] = tested on: HIF1a protein in H9c2 rat cardiomyocytes; test: Cell-based HIF-alpha stabilization assay (inhibition of PHD in cells); conditions: Rattus norvegicus, H9c2, 24 h, 24 hrs compound incubation, HIF1a protein by ELISA, read-out: Inhibition of PHD in cells (pEC50) (converted)
In short: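 HIF1a stabilization was measured by ELISA on lysates of H9c2 rat cardiomyocytes after 24 h exposure to 11 serial compound concentrations, expressed relative to the desferrioxamine maximum. Curve fits gave EC50. EC50pos denotes the concentration producing half the desferrioxamine maximal response.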

[2] = target: PHD2 enzyme (residues 181-417) (Homo sapiens (Human), UniProt Q9GZT9); test: Inhibition of PHD enzyme (LC/MS peptide hydroxylation assay); assay type: biochemical; conditions: PHD2 (residues 181-417) 5 nM, 60 min pre-incubation; -log(IC50), IC50 molar
PHD2 enzyme (residues 181-417), sequence (Q9GZT9 181-417): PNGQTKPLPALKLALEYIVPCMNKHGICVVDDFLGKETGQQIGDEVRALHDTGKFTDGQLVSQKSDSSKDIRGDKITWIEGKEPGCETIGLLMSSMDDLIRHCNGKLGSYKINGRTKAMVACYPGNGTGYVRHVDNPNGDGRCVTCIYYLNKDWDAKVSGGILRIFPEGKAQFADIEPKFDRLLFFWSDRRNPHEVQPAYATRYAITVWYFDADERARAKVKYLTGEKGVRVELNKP
In short: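 Hydroxylated peptide quantified by LC/MS after 60 min turnover of 1 uM biotinylated peptide with 2 uM 2-oxoglutarate and 1 mM ascorbate, stopped by excess tight-binding inhibitor. Beforehand, 5 nM enzyme and compound were preincubated 60 min at RT, pH 7.3 HEPES/KCl/TCEP/FeCl2/BSA buffer. Values as pIC50 (−log molar IC50).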

SMILES	PHD Inhibition (pIC50) [2]	EC50 [1] [nM]
Cc1cc(C#N)ccc1-c1cnn(-c2ccc(C(=O)N[C@H]3CC[C@H](C)CC3)cn2)c1O [Example 183, 6-(4-(4-cyano-2-methylphenyl)-5-hydroxy-1H-pyrazol-1-yl)-N-((1r,4r)-4-methylcyclohexyl)nicotinamide]	7.9	646
Cc1cc(C#N)ccc1-c1cnn(-c2ccc(C(=O)N3CC4(COC4)C3)cn2)c1O [Example 185, 4-(1-(5-(2-oxa-6-azaspiro[3.3]heptane-6-carbonyl)pyridin-2-yl)-5-hydroxy-1H-pyrazol-4-yl)-3-methylbenzonitrile]	8	562
N#Cc1ccc(-c2cnn(-c3ccc(C(=O)NCC4CCOCC4)cn3)c2O)cc1F [Example 189, 6-(4-(4-cyano-3-fluorophenyl)-5-hydroxy-1H-pyrazol-1-yl)-N-((tetrahydro-2H-pyran-4-yl)methyl)nicotinamide]	7.49	4680
O=C(NCC1CCOCC1)c1ccc(-n2ncc(-n3ccc(=O)cc3)c2O)nc1 [Example 190, 6-(5-hydroxy-4-(4-oxopyridin-1(4H)-yl)-1H-pyrazol-1-yl)-N-((tetrahydro-2H-pyran-4-yl)methyl)nicotinamide]	7	15800
O=C(NCc1ccccc1)c1ccc(-n2ncc(-n3ccc(=O)cc3)c2O)nc1 [Example 191, N-benzyl-6-(5-hydroxy-4-(4-oxopyridin-1(4H)-yl)-1H-pyrazol-1-yl)nicotinamide]	7.19	6760
O=C(NCC1CCOCC1)c1ccc(-n2ncc(-n3ccccc3=O)c2O)nc1 [Example 192, 6-(5-hydroxy-4-(2-oxopyridin-1(2H)-yl)-1H-pyrazol-1-yl)-N-((tetrahydro-2H-pyran-4-yl)methyl)nicotinamide]	6.84	50100
O=C(NCc1ccccc1)c1ccc(-n2ncc(-n3ccccc3=O)c2O)nc1 [Example 193, N-benzyl-6-(5-hydroxy-4-(2-oxopyridin-1(2H)-yl)-1H-pyrazol-1-yl)nicotinamide]	7.57	2690
N#Cc1ccc(-c2cnn(-c3ccc(C(=O)NCC4CCOCC4)cn3)c2O)c(Cl)c1 [Example 197, 6-(4-(2-chloro-4-cyanophenyl)-5-hydroxy-1H-pyrazol-1-yl)-N-((tetrahydro-2H-pyran-4-yl)methyl)nicotinamide]	6.83	1580
COCCCNC(=O)c1ccc(-n2ncc(-c3ccnc(OC)c3)c2O)nc1 [Example 203, 6-(5-hydroxy-4-(2-methoxypyridin-4-yl)-1H-pyrazol-1-yl)-N-(3-methoxypropyl)nicotinamide]	7.1	603
COc1cc(-c2cnn(-c3ccc(C(=O)NC4CC4)cn3)c2O)ccn1 [Example 204, N-cyclopropyl-6-(5-hydroxy-4-(2-methoxypyridin-4-yl)-1H-pyrazol-1-yl)nicotinamide]	7.08	468
Cc1cc(C#N)ccc1-c1cnn(-c2ccc(C(=O)NCCC3CCCCO3)cn2)c1O (centres unmarked) [Example 206, 6-(4-(4-cyano-2-methylphenyl)-5-hydroxy-1H-pyrazol-1-yl)-N-(2-(tetrahydro-2H-pyran-2-yl)ethyl)nicotinamide]	8.2	110
COc1cc(-c2cnn(-c3ccc(C(=O)NCCC4CCCCO4)cn3)c2O)ccn1 (centres unmarked) [Example 207, 6-(5-hydroxy-4-(2-methoxypyridin-4-yl)-1H-pyrazol-1-yl)-N-(2-(tetrahydro-2H-pyran-2-yl)ethyl)nicotinamide]	8.3	123
Cn1ccc(-c2cnn(-c3ccc(C(=O)NCC4CCOCC4)cn3)c2O)cc1=O [Example 211, 6-(5-hydroxy-4-(1-methyl-2-oxo-1,2-dihydropyridin-4-yl)-1H-pyrazol-1-yl)-N-((tetrahydro-2H-pyran-4-yl)methyl)nicotinamide]	6.47	50100

The next lines start with results.

PHD Inhibition (pIC50) [2]	SMILES	EC50 [1] [nM]
8.2	COC(C)CCNC(=O)c1ccc(-n2ncc(-c3ccc(C#N)cc3C)c2O)nc1 (centres unmarked) [Example 181, 6-(4-(4-cyano-2-methylphenyl)-5-hydroxy-1H-pyrazol-1-yl)-N-(3-methoxybutyl)nicotinamide]	324
8.1	COCC(C)CNC(=O)c1ccc(-n2ncc(-c3ccc(C#N)cc3C)c2O)nc1 (centres unmarked) [Example 182, 6-(4-(4-cyano-2-methylphenyl)-5-hydroxy-1H-pyrazol-1-yl)-N-(3-methoxy-2-methylpropyl)nicotinamide]	309
8.1	COC1CN(C(=O)c2ccc(-n3ncc(-c4ccc(C#N)cc4C)c3O)nc2)C1 [Example 184, 4-(5-hydroxy-1-(5-(3-methoxyazetidine-1-carbonyl)pyridin-2-yl)-1H-pyrazol-4-yl)-3-methylbenzonitrile]	214
7.8	Cc1cc(C#N)ccc1-c1cnn(-c2ccc(C(=O)NC3CN(C)C3)cn2)c1O [Example 186, 6-(4-(4-cyano-2-methylphenyl)-5-hydroxy-1H-pyrazol-1-yl)-N-(1-methylazetidin-3-yl)nicotinamide]	295
7.8	Cc1cc(C#N)ccc1-c1cnn(-c2ccc(C(=O)NC(C)(C)CN(C)C)cn2)c1O [Example 187, 6-(4-(4-cyano-2-methylphenyl)-5-hydroxy-1H-pyrazol-1-yl)-N-(1-(dimethylamino)-2-methylpropan-2-yl)nicotinamide]	355
7.3	N#Cc1ccc(-c2cnn(-c3ccc(C(=O)NCc4ccccc4)cn3)c2O)cc1F [Example 188, N-benzyl-6-(4-(4-cyano-3-fluorophenyl)-5-hydroxy-1H-pyrazol-1-yl)nicotinamide]	5250
7.3	COc1cc(C#N)ccc1-c1cnn(-c2ccc(C(=O)NCC3CCOCC3)cn2)c1O [Example 194, 6-(4-(4-cyano-2-methoxyphenyl)-5-hydroxy-1H-pyrazol-1-yl)-N-((tetrahydro-2H-pyran-4-yl)methyl)nicotinamide]	513
7.01	COc1cc(C#N)ccc1-c1cnn(-c2ccc(C(=O)NCc3ccccc3)cn2)c1O [Example 195, N-benzyl-6-(4-(4-cyano-2-methoxyphenyl)-5-hydroxy-1H-pyrazol-1-yl)nicotinamide]	2510
6.84	N#Cc1ccc(-c2cnn(-c3ccc(C(=O)NCc4ccccc4)cn3)c2O)c(Cl)c1 [Example 196, N-benzyl-6-(4-(2-chloro-4-cyanophenyl)-5-hydroxy-1H-pyrazol-1-yl)nicotinamide]	3550
7.35	CC1(NC(=O)c2ccc(-n3ncc(-c4ccc(C#N)cc4)c3O)nc2)CC1 [Example 198, 6-(4-(4-cyanophenyl)-5-hydroxy-1H-pyrazol-1-yl)-N-(1-methylcyclopropyl)nicotinamide]	741
6.89	COCC1(NC(=O)c2ccc(-n3ncc(-c4ccc(C#N)cc4)c3O)nc2)CCC1 [Example 199, 6-(4-(4-cyanophenyl)-5-hydroxy-1H-pyrazol-1-yl)-N-(1-(methoxymethyl)cyclobutyl)nicotinamide]	2340
7.09	COCC(C)(C)NC(=O)c1ccc(-n2ncc(-c3ccc(C#N)cc3)c2O)nc1 [Example 200, 6-(4-(4-cyanophenyl)-5-hydroxy-1H-pyrazol-1-yl)-N-(1-methoxy-2-methylpropan-2-yl)nicotinamide]	1100
7.29	COCC1(NC(=O)c2ccc(-n3ncc(-c4ccc(C#N)cc4)c3O)nc2)CC1 [Example 201, 6-(4-(4-cyanophenyl)-5-hydroxy-1H-pyrazol-1-yl)-N-(1-(methoxymethyl)cyclopropyl)nicotinamide]	776
7.23	CC(C)(C)NC(=O)c1ccc(-n2ncc(-c3ccc(C#N)cc3)c2O)nc1 [Example 202, N-(tert-butyl)-6-(4-(4-cyanophenyl)-5-hydroxy-1H-pyrazol-1-yl)nicotinamide]	724
6.89	COCC1(NC(=O)c2ccc(-n3ncc(-c4ccnc(OC)c4)c3O)nc2)CC1 [Example 205, 6-(5-hydroxy-4-(2-methoxypyridin-4-yl)-1H-pyrazol-1-yl)-N-(1-(methoxymethyl)cyclopropyl)nicotinamide]	631
7.8	COCCC1(NC(=O)c2ccc(-n3ncc(-c4ccc(C#N)cc4)c3O)nc2)CC1 [Example 208, 6-(4-(4-cyanophenyl)-5-hydroxy-1H-pyrazol-1-yl)-N-(1-(2-methoxyethyl)cyclopropyl)nicotinamide]	269
6.98	COCCC1(NC(=O)c2ccc(-n3ncc(-c4ccnc(OC)c4)c3O)nc2)CC1 [Example 209, 6-(5-hydroxy-4-(2-methoxypyridin-4-yl)-1H-pyrazol-1-yl)-N-(1-(2-methoxyethyl)cyclopropyl)nicotinamide]	398
7.45	COCCCNC(=O)c1ccc(-n2ncc(-c3ccc(C#N)cc3F)c2O)nc1 [Example 213, 6-(4-(4-cyano-2-fluorophenyl)-5-hydroxy-1H-pyrazol-1-yl)-N-(3-methoxypropyl)nicotinamide]	380
